Article PMC5736782, “The Differential Absorption of a Series of P-Glycoprotein Substrates in Isolated Perfused Lungs from Mdr1a/1b Genetic Knockout Mice can be Attributed to Distinct Physico-Chemical Properties: an Insight into Predicting Transporter-Mediated, Pulmonary Specific Disposition” (Pharmaceutical Research, 2017)
Like-named read-outs stand apart in the source and are kept apart here.

Experiments:
human MDR1 = human MDR1 (Homo sapiens, UniProt P08183); experiment: Gentest ABC transporter membrane ATPase assay; conditions: ATPase, 0–300 μM, 30 min, 37°C
Source text: (§1) The Gentest ATPase assay (Corning, Germany) was used to investigate the binding kinetics of the panel of P-gp substrates against membranes constituted to display human MDR1, mouse Mdr1a, mouse Mdr1b and mouse Bcrp. The assays measure the accumulation of inorganic phosphate (absorbance at 800 nm) produced in the breakdown of ATP to ADP. […] The assays were used in accordance with the manufacturer’s protocol to calculate (GraphPad Prism) the Michaelis-Menten parameters Km and VMAX. For the assay test compounds were serially diluted to produce an assay concentration range of 0–300 μM with the kinetics of ATP turnover examined over 30 min at 37°C.

mouse Mdr1b = mouse Mdr1b (Mus musculus, UniProt P06795); experiment: Gentest ABC transporter membrane ATPase assay; conditions: 0–300 μM, 30 min, 37°C
P-gp [1] = test system: P-gp; set-up: method as in PMID 23670704; conditions: IPRL and IPML models; cited from earlier work
[2] = test system: P-gp (Mdr1a/1b) in mouse intestinal segments; experiment: Ussing chamber intestinal permeability, ileal segments Mdr1a/1b (+/+) vs (−/−); conditions: for Mdr1a/1b (−/−) Permeability coefficient: P-gp knockout intestinal segments; for Mdr1a/1b (−/−) Permeability coefficient / Mdr1a/1b (+/+) Permeability coefficient: mucosal to serosal, 50 μM, 180 min; for Ratio Permeability (−/−): (+/+): intestinal Papp KO:WT; for Mdr1a/1b (+/+) Permeability coefficient: wild-type intestinal segments
Procedure: (§2) The bathing fluid for both mucosal and serosal surfaces (3 mL volume in each chamber) comprised oxygenated Krebs-Henseleit buffer maintained at 37°C (heating block) under stirred conditions (gas flow manifold). […] Any intestinal segments presenting an initial TEER of lower than 80 Ω.cm^2 were discarded prior to the experiment, likewise any segments whose TEER decreased by more than 10% over the course of the experiment were excluded.
(§3) Thereafter permeability coefficients were determined according to Eq. 4:4 ρ=dM/dt/A^∗C0

mouse Bcrp = biological target: T1, mouse Bcrp (Mus musculus, UniProt Q7TMS5); experiment: Gentest ABC transporter membrane ATPase assay; assay type: biochemical
T1 construct: purchased Corning (Gentest), Germany
T1 sequence (Q7TMS5 1-657): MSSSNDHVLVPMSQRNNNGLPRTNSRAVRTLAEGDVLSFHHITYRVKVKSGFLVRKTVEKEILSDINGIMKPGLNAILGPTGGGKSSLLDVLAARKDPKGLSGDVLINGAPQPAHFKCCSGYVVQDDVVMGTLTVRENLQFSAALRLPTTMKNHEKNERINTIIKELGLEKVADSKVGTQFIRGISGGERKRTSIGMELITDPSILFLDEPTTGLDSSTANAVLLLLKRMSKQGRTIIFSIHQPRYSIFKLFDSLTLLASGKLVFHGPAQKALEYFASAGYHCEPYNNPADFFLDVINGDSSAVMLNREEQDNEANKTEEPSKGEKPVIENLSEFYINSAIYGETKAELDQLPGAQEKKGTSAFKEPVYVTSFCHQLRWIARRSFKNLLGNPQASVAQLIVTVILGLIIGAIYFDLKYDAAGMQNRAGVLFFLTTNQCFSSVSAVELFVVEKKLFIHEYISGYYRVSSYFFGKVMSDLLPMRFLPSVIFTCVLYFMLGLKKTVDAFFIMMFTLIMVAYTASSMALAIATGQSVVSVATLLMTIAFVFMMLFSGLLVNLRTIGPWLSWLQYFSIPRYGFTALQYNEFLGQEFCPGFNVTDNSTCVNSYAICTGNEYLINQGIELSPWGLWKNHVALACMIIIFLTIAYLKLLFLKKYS
Source text: as §1

mouse Mdr1a = mouse Mdr1a (Mus musculus, UniProt P21447); experiment: Gentest ABC transporter membrane ATPase assay; conditions: 0–300 μM, 30 min, 37°C
Source text: as §1

[3] = Immobilised artificial membrane (IAM) chromatography; assay type: physicochemical; conditions: extrapolated to 100% water; mean of four experiments
Procedure: IAM chromatography provided an experimental measure of substrate membrane affinity and phospholipid interaction. The IAM column (Regis Technologies Inc., Hichrom, Reading, UK; IAM.PC.DD2 10 cm x 4.6 mm ID column) was run under isocratic eluting conditions with the retention of all compounds determined under three mobile phase conditions: 10%, 20% and 30% acetonitrile in water, and from which the theoretical retention time in 100% water was calculated by linear regression. LogK^IAM values were calculated according to Eq. 2:2 LogK^IAM=LogTr−T0/T0
where Tr and T0 are respectively the retention times of the substrate in 100% water and of the unretained compound, i.e. eluting within the solvent front of 75 s in all experiments.

[4] = test system: P-glycoprotein (Mdr1a/Mdr1b) in isolated perfused mouse lung; experiment: Isolated perfused mouse lung (IPML) airway-to-perfusate absorption, Mdr1a/1b (+/+) vs (−/−)
Procedure: The atria and the lower half of the heart were cut to allow the free flow of perfusate. The lungs were removed and suspended vertically in a custom water-jacketed glass thorax (Radleys, Essex, UK) maintained at 37°C.
Following dosing of compound into the IPML airways serial samples (250 μL) were collected for bioanalysis from the 10 mL recirculating perfusate reservoir. Each sample collected from the reservoir was replaced with an equal volume of fresh warmed, oxygenated perfusate. Upon termination of the experiment the dose solutions, apparatus washings and perfusate samples were collected for mass balance calculations enabling determination of the actual total dose delivered to the lungs.
Radioactive compounds were directly analysed by liquid scintillation counting. Volumes of 50 μL perfusate samples were mixed with 3 mL of Scintisafe 3 Liquid Scintillation Fluid (Fisher, UK) and transferred to vials for scintillation counting using a TriCarb 2900TR (Packard Bioscience, USA).
After accounting for the mass of compound removed at each sample point, plots of the cumulative ‘%deposited dose absorbed’ versus ‘time’ were generated and subject to nonlinear regression analysis according to a first-order absorption one-compartment accumulating model (Eq. 1) to generate estimates for the extent (F) and rate (Ka) of absorption from the IPML airways to the recirculating perfusate.
The data was also subject to standard non-compartmental analysis, specifically Area Under Curve (AUC0–30 min) of ‘%deposited dose absorbed’ versus ‘time’ (units: %Dose.min) and reflecting for the exclusively accumulating perfusate ‘compartment’ the exposure arising from the IPML absorption process alone.

P-gp [5] = conditions: IPRL; cited from earlier work
P-gp (Mdr1a/1b) = experiment: Pilot in-vivo intra-nasal instillation, lung clearance
Procedure: Separate mice were sacrificed (n=3) at each time-point post-instillation (5 min, 1 hr, 3 hr, 5 hr, 7 hr and 12 hr). Lung tissue was homogenised and subjected to solute extraction approaches priod to LC-MS/MS quantitation.

[6] = Multi-lamellar liposome vesicle (MLV) partitioning; assay type: physicochemical; conditions: (C0−CS)/C0, 1 μg/mL, 4 h, 37°C, PBS pH 7.4
Procedure: MLVs were formed as previously described ([20]). Briefly, solutions of 8 mg phosphatidylcholine and 2 mg phosphatidylglycerol in 10 mL chloroform were completely dried to a lipid film (rotation under vacuum).
These preparations were then incubated at 37°C for 4 h under shaking conditions to allow equilibration of compound between the lipid and aqueous fractions. The MLVs were then pelleted and 100 μL of supernatant removed for analysis by radiometric or LC-MS/MS methods as described above. Partitioning into the MLVs was determined according to Eq. 3:3 MLVpartitioning=C0−CS/C0
where C0 is the initial compound concentration (1 μg/mL) and CS is the compound concentration present in the aqueous supernatant at the end of 4 h incubation.

[7] = test system: P-gp (Mdr1a/1b) in mouse intestinal segments
Procedure: as §2, §3

human MDR1 (P-gp) = human MDR1 (P-gp) (Homo sapiens, UniProt P08183); experiment: Gentest ABC transporter membrane ATPase assay; conditions: human
Source text: as §1

Caco-2 cell model = test system: Caco-2 cell model; set-up: method as in PMID 12761811; conditions: cited from earlier work
[8] = set-up: method as in PMID 12761811; conditions: cited from earlier work
[9] = ATPase, 0 indicates no enzyme turnover
[10] = categorisation from IPML outcomes
[11] = knockout IPML, within 30 minutes
[12] = wild-type IPML, within 30 minutes
[13] = knockout IPML, % deposited dose absorbed vs time in perfusate

Sequence of mouse Mdr1b (P06795 whole entry): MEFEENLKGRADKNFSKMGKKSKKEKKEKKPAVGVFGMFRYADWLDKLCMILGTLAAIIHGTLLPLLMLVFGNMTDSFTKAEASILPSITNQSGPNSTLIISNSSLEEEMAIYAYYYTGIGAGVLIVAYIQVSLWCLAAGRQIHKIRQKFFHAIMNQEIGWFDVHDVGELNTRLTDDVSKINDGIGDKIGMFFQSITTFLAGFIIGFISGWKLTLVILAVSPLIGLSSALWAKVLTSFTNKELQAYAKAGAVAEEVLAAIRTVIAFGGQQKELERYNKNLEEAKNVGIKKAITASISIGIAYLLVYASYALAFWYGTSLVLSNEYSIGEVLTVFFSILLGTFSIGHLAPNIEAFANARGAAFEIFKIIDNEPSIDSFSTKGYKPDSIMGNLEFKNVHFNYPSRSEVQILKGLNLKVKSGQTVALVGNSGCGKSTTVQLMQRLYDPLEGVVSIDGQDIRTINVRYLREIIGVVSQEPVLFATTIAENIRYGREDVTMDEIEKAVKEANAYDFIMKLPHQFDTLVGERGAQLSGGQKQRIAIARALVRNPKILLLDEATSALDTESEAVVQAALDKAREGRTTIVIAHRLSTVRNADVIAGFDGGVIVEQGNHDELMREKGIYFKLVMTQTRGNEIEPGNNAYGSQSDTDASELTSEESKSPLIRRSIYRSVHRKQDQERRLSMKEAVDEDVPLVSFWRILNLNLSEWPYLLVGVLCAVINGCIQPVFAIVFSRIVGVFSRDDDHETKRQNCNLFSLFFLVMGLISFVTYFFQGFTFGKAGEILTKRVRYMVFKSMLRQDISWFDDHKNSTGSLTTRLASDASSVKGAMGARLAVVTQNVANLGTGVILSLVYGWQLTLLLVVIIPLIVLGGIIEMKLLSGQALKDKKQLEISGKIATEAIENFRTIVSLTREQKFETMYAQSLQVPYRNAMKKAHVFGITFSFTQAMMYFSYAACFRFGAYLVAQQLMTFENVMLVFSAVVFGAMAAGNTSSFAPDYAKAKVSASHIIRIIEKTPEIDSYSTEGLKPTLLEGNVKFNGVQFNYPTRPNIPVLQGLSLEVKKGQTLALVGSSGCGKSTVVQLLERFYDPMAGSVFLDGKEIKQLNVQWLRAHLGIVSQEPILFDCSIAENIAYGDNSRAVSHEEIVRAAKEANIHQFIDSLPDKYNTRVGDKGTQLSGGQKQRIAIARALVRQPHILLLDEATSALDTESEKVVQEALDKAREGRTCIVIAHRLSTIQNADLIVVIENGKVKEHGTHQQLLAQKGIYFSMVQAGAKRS
Sequence of human MDR1 (P08183 whole entry): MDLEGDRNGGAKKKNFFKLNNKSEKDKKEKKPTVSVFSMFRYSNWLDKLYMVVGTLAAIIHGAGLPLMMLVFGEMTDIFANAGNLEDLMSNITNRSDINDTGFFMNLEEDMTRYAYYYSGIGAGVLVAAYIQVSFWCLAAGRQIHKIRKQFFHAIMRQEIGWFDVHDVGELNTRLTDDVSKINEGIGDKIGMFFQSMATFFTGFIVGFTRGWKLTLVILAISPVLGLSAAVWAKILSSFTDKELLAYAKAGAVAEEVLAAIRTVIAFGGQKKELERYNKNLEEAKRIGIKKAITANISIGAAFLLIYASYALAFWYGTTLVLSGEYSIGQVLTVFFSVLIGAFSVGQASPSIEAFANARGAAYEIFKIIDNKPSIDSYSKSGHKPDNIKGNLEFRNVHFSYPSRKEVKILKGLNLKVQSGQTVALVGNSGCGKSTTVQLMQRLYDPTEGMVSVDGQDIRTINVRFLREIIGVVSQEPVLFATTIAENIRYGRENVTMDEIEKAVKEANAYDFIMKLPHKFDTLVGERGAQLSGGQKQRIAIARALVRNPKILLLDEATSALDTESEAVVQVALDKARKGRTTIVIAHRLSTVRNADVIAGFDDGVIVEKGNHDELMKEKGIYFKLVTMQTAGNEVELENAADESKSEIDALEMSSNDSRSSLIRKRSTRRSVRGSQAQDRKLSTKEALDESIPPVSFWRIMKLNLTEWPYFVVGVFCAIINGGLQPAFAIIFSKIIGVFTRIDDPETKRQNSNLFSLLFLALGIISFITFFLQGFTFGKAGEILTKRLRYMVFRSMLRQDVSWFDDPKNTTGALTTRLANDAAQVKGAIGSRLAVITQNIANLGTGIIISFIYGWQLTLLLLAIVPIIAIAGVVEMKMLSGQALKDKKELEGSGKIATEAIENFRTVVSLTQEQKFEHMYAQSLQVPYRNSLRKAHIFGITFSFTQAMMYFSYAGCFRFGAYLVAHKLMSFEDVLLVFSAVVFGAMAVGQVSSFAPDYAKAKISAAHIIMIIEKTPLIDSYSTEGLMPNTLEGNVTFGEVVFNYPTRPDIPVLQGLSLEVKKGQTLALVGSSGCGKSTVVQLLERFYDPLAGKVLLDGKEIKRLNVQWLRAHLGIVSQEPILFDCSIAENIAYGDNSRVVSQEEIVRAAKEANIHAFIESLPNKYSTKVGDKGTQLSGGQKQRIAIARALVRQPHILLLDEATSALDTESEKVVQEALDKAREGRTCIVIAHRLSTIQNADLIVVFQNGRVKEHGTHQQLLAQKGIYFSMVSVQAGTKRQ
Sequence of mouse Mdr1a (P21447 whole entry): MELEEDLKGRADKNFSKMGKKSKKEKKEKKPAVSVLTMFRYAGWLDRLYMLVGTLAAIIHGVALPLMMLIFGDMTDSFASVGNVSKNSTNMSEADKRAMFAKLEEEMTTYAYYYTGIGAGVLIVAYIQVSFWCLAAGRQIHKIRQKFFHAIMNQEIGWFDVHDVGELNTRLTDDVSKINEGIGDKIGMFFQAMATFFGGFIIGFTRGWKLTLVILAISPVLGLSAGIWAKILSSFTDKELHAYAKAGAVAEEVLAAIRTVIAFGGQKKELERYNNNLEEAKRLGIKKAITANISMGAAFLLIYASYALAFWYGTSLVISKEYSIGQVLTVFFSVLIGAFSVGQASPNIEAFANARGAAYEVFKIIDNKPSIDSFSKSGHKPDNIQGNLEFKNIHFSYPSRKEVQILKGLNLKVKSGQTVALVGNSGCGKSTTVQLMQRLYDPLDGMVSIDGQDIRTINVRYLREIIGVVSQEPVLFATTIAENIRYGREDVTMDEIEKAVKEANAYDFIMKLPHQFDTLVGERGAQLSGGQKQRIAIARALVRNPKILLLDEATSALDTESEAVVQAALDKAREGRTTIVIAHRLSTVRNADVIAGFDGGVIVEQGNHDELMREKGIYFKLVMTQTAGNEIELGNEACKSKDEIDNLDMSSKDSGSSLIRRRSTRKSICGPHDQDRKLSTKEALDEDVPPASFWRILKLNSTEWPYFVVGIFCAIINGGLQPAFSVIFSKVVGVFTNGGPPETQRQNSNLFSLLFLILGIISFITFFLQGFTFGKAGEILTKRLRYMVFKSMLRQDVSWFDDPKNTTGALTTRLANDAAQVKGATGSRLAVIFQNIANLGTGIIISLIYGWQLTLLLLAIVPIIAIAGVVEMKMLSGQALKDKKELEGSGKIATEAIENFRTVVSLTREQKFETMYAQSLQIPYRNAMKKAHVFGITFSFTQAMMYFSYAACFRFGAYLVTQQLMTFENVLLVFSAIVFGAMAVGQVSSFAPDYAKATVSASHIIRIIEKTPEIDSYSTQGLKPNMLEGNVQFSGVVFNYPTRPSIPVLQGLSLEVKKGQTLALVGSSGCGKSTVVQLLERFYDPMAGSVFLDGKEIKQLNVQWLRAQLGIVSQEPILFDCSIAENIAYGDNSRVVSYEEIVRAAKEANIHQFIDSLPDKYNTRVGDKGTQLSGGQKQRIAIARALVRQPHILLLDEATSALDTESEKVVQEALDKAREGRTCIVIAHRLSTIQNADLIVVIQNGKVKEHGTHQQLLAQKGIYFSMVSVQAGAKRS
Sequence of human MDR1 (P-gp) (P08183 whole entry): as the sequence (P08183 whole entry) above

| Compound | Vmax (human MDR1) [µM/min] | Km (mouse Mdr1b) [µM] | Vmax (mouse Mdr1b) [µM/min] | effect of P-gp inhibition (GF120918) upon pulmonary absorption (P-gp [1]) | Mdr1a/1b (−/−) Permeability coefficient [2] | Ratio Permeability (−/−): (+/+) [2] | Mdr1a/1b (+/+) Permeability coefficient [2] | Vmax (mouse Bcrp; [9]) [µM/min] | Km (mouse Mdr1a) [µM] | Vmax (mouse Mdr1a) [µM/min] | LogK^IAM [3] | Group (impact of Mdr1a/1b knockout on IPML absorption) [4, 10] | Mdr1a/1b (-/-) % Deposited Dose absorbed [4, 11] [%] | Mdr1a/1b (+/+) % Deposited Dose absorbed [4, 12] [%] | effect of co-administered GF120918 upon pulmonary absorption (P-gp [5]) | MLV Partitioning [6] | Mdr1a/1b (−/−) Permeability coefficient [7] | Group (impact of Mdr1a/1b knockout on IPML absorption) [4] | Mdr1a/1b (+/+) ‘F’ estimate by model fit [95% CI) ([4]; male, mouse, 50 μM) | Mdr1a/1b (-/-) ‘F’ estimate by model fit [95% CI) ([4]; male, mouse, 50 μM) | other results |
| --- | --- | --- | --- | --- | --- | --- | --- | --- | --- | --- | --- | --- | --- | --- | --- | --- | --- | --- | --- | --- | --- |
| COC(=O)c1ccccc1-c1c2ccc(=N)cc-2oc2cc(N)ccc12.Cl [Rh-123, rhodamine-123] | 36.3 | 2.2 | 29.7 | increased | 22.55 ± 2.24 cm/s (x10^−6) | 2.49 | 9.06 ± 1.81 cm/s (x10^−6) | 18.5 | 6 | 35.2 | 1.30 | GROUP B | 33.2 | 20.7 | significantly increased | 0.82 |  |  |  |  | Km (human MDR1): 2200 nM; Km (mouse Bcrp; [9]): 110 µM; interaction with Bcrp (ATP turnover) (mouse Bcrp; mouse Bcrp membrane model): showed evidence of interactions with Bcrp; Mdr1a/1b (+/+) AUC(0-30) [4]: 376 %.min; Mdr1a/1b (+/+) ‘F’ estimate by model fit [95% CI) [4]: 23.5 [19.9 to 27.1]; Mdr1a/1b (-/-) AUC(0-30) [4]: 712 %.min; Mdr1a/1b (-/-) ‘F’ estimate by model fit [95% CI) [4]: 30.6 [27.6 to 33.5]; Ratio AUCs (-/-) : (+/+) ([4]; mouse): 1.89; t^1/2 for the initial decline of lung clearance, KO (P-gp (Mdr1a/1b); mouse, in vivo): 107 min; t^1/2 for the initial decline of lung clearance, WT (P-gp (Mdr1a/1b); mouse, in vivo): 136 min; t^1/2 terminal decline phase of lung clearance (P-gp (Mdr1a/1b); mouse, in vivo): 500 min |
| CC(C)(C)NCC(O)c1ccc(O)c(CO)c1 (centres unmarked) [Salbutamol, salbutamol] | 45.6 |  | 49.1 |  |  |  | 10.6 ± 2.30 cm/s (x10^−6) | 0 |  | 52.3 | 1.47 |  |  |  |  | 0.88 | 14.90 ± 2.16 cm/s (x10^−6) | GROUP B | 24.9 [21.8 to 28.1] | 30.2 [28.2 to 32.2] |  |
| COc1cc2c(c(OC)c1OC)-c1ccc(OC)c(=O)cc1[C@@H](NC(C)=O)CC2 [Colchicine, colchicine] | 16.6 | 7.7 | 28.4 |  | 14.95 ± 3.18 cm/s (x10^−6) | 2.16 | 6.93 ± 3.15 cm/s (x10^−6) | 0 | 9.1 | 22.7 | 1.30 | GROUP B | 25.4 | 17.7 |  | 0.86 |  |  |  |  | Km at 30 min (human MDR1 (P-gp)): 15.4 µM; Ratio AUCs (-/-) : (+/+) ([4]; IPML KO:WT): 1.43; Mdr1a/1b (-/-) AUC(0-30) [4, 13]: 571 %.min; Mdr1a/1b (+/+) ‘F’ estimate by model fit [95% CI) ([4]; male, mouse): 16.6 [14.7 to 18.4]; Mdr1a/1b (-/-) ‘F’ estimate by model fit [95% CI) ([4]; male, mouse): 23.3 [20.9 to 25.7]; Mdr1a/1b (+/+) AUC(0-30) ([4]; wild-type IPML, % deposited dose absorbed vs time in perfusate): 398 %.min |
| C[C@H]1O[C@@H](O[C@H]2[C@@H](O)C[C@H](O[C@H]3[C@@H](O)C[C@H](O[C@H]4CC[C@@]5(C)[C@H](CC[C@@H]6[C@@H]5C[C@@H](O)[C@]5(C)[C@@H](C7=CC(=O)OC7)CC[C@]65O)C4)O[C@@H]3C)O[C@@H]2C)C[C@H](O)[C@@H]1O [Digoxin, digoxin] | 19.7 |  | 44.1 | remained unaffected | 20.94 ± 2.94 cm/s (x10^−6) |  | 6.04 ± 1.46 cm/s (x10^−6) | 0 |  | 26.7 | 0.92 |  |  |  | no effect | 0.30 |  |  | 44.0 [37.2 to 50.8] | 49.8 [38.4 to 61.3] | Mdr1a/1b (+/+) % Deposited Dose absorbed ([4]; male, mouse, 30 min, 50 μM): 40.1%; Mdr1a/1b (-/-) % Deposited Dose absorbed ([4]; male, mouse, 30 min, 50 μM): 41.8%; lung levels 1 hr post-instillation, wild-type mice (P-gp (Mdr1a/1b); intra-nasal 976 ng, Mdr1a/1b +/+): 1.57 % of the nominal instilled dos; lung levels 1 hr post-instillation, knockout mice (P-gp (Mdr1a/1b); intra-nasal 976 ng, Mdr1a/1b -/-): 0.94 % of the nominal instilled dos; lung levels after 1 h post-instillation (P-gp (Mdr1a/1b); intra-nasal, WT and KO mice): undetectable |
| CC[C@@]1([C@@H]2O[C@@H]([C@H]3O[C@@](O)(CO)[C@H](C)C[C@@H]3C)C[C@@H]2C)CC[C@H]([C@]2(C)CC[C@]3(C[C@H](O)[C@@H](C)[C@@H]([C@@H](C)[C@@H](OC)[C@H](C)C(=O)O)O3)O2)O1 [Monensin, monensin] |  |  | 42.3 |  |  |  |  | 0 |  | 27.6 | 1.32 |  | 38.9 | 36.5 |  | 0.68 | 19.06 ± 2.41 cm/s (x10^−6) | GROUP A |  |  | Mdr1a/1b (-/-) AUC(0-30) [4, 13]: 722 %.min; Mdr1a/1b (+/+) ‘F’ estimate by model fit [95% CI) ([4]; male, mouse): 35.8 [28.0 to 43.6]; Mdr1a/1b (-/-) ‘F’ estimate by model fit [95% CI) ([4]; male, mouse): 33.7 [27.7 to 39.6] |
| CC(C)(C)NCC(O)c1cc(O)cc(O)c1 (centres unmarked) [terbutaline] |  |  |  |  |  |  |  |  |  |  |  |  |  |  |  |  |  |  |  |  | Papp (Caco-2 cell model): < 1e-06 cm/s; permeability across the lung [8]: high permeability |
